Measured values reported in US4005219A, “Pharmaceutical compositions and their administration for the prophylaxis of asthma, hayfever and rhinitis” (Beecham Group Limited, priority 1974, dated 1977).

System: PCA response
Test: Rat Passive Cutaneous Anaphylaxis (PCA) test
Type: in vivo, Wistar rats
Conditions: iv
Protocol: All of the 2-nitro indane-1,3-diones prepared in the preceeding Examples were submitted for biological testing. The test system was the Rat Passive Cutaneous Anaphylaxis (PCA) test described below in (II).
7, 681Serum containing heat labile homocytotropic antibody was raised in rats by a method similar to that used by Mota. (I. Mota Immunology 1964, 7, 681).
Male Wistar rats of 250-300g, were injected intraperitoneally with 0.5ml. of Bordetella pertussis vaccine (containing 4 × 10^10 dead oranism per ml. and subcutaneously with 0.5ml. of an emulsion of 100mg. of ovalbumin in 2ml of saline and 3ml of incomplete Freunds' adjuvant. Rats were bled by cardiac puncture on day 18, the blood was pooled and separated and serum stored at -20° and thawed only once before use.
II. The P.C.A. test was similar to that described by Ovary and Bier (A. Ovary and O. E. Bier. Proc. Soc. Exp. Biol. Med. 1952, 81, 584) and Goose and Blair (J. Goose and A. M. J. N Blair Immunology 1969, 16, 749).
0.1ml of each of six twofold serial dilutions of the serum in 0.9% saline were injected intradermally into separate sites on the shaved dorsal surface of 250-350g. Wistar rats. 72 hours later the animals were challenged by i.v. injection of 0.3ml of 1% ovalbumin mixed with 0.1ml of a 5% solution of pontamine sky blue dye both in isotonic saline buffered with pH. 7.2 Sorenson buffer (P.B.S.). The rats were killed after 20 minutes and the diameter of the blue wheals at the antibody injection sites were measured. The starting dilution of the serum was adjusted so that there was no response, after challenge, at the site of injection of the highest dilution and a maximum response at the lowest dilution. Typically six twofold serial dilutions of the serum from one-fourth to […] were used.
Compounds were tested for their ability to reduce the diameter of the wheals at the injection sites of dilutions of antibody which on all the controls have less than maximum response. Amounts of the compounds were administered to rats each amount to a test group of six animals at a specified time prior to intravenous challenge with ovalbumin. The diameters of the blue wheals which developed on the test group of animals were compared with those on a control group of six animals treated in the same way as the test group, but which had not received the compound under test.
% Inhibition of P.C.A. = 100 (1 - a/b)
a = The mean of the sum of the diameters of the wheals produced in the test group of animals at those antibody sites where all the control group of animals gave less than maximum response.
b = The mean of the sum of diameters of the wheals produced in the control group of animals at those antibody sites where all the animals in the group gave less than maximum response.
The preferred method of administration was as a solution of the test compound dissolved in pH 7.2 buffer and neutralised with sodium bicarbonate. For those compounds having insoluble sodium salts, the salts were isolated by reaction of the free nitro compound with 2.5N sodium hydroxide and the filtered sodium salt washed free of alkali with water. The dried salts were then administered as a suspension in 1% methyl cellulose.

[1] = 0 h, Time 0 mins (prior to i.v. ovalbumin challenge)
[2] = 0.5 h, Time 30 mins (prior to i.v. ovalbumin challenge)
[3] = 1 h, Time 60 mins (prior to i.v. ovalbumin challenge)

Compound	inhibition in vivo at 25 mg/kg [1] [%]	inhibition in vivo at 100 mg/kg [1] [%]	inhibition in vivo at 25 mg/kg [2] [%]	inhibition in vivo at 100 mg/kg [2] [%]	inhibition in vivo at 25 mg/kg [3] [%]	inhibition in vivo at 100 mg/kg [3] [%]
CC1=C(C)C[C@H]2C(=O)C([N+](=O)[O-])C(=O)[C@H]2C1 (relative stereo) [1(b), 5,6-Dimethyl-2-nitro cis-3a,4,7,7a-tetrahydroindane-1,3-dione]	16	61	6	42		
CC1C[C@@H]2C(=O)C([N+](=O)[O-])C(=O)[C@@H]2CC1C (stereo partly drawn) [2(b), 5,6-Dimethyl cis-hexahydro-2-nitro indane-1,3-dione]	7	31	6	37		
CC1C=CC(C)[C@@H]2C(=O)C([N+](=O)[O-])C(=O)[C@H]12 (stereo partly drawn) [3(b), 4,7-Dimethyl-2-nitro cis-3a,4,7,7a-tetrahydroindane-1,3-dione]	-8	-8	7	-1		
CC1CCC(C)[C@@H]2C(=O)C([N+](=O)[O-])C(=O)[C@H]12 (stereo partly drawn) [4(b), 4,7-Dimethyl cis-hexahydro-2-nitro indane-1,3-dione]	4	19			13	11
O=C(O)C1C=CC[C@@H]2C(=O)C([N+](=O)[O-])C(=O)[C@H]12 (stereo partly drawn) [5(b), 4-Carboxy-2-nitro cis-3a,4,7,7a-tetrahydroindane-1,3-dione]	2	-3	-1	-6		
O=C1C2C3C=CC(C3)C2C(=O)C1[N+](=O)[O-] (stereo not shown) [6(b), 4-Nitro tricyclo [5,2,1,0^2,6] dec-8-ene-3,5-dione]	-9	4			-9	17
O=C1C2C3CCC(C3)C2C(=O)C1[N+](=O)[O-] (stereo not shown) [7(b), 4-Nitro tricyclo [5,2,1,0^2,6] decane-3,5-dione]	8	26	-3	9		
CC1C=CC[C@@H]2C(=O)C([N+](=O)[O-])C(=O)[C@H]12 (stereo partly drawn) [8(b), 4-Methyl-2-nitro-cis-3a,4,7,7a-tetrahydroindane-1,3-dione]	12	41	13	52		
COC(=O)C1C=CC[C@@H]2C(=O)C([N+](=O)[O-])C(=O)[C@H]12 (stereo partly drawn) [9(b), 4-Carbomethoxy-2-nitro-cis-3a, 4,7,7a-tetrahydroindane-1,3-dione]	2	10	-9	-5		
CC(=O)OC1CCC[C@@H]2C(=O)C([N+](=O)[O-])C(=O)[C@H]12 (stereo partly drawn) [10(b), 4-Acetoxy-cis-hexahydro-2-nitro-indane-1,3-dione]	12	11	17	20		
O=C1C2C3C=CC(CC3)C2C(=O)C1[N+](=O)[O-] (stereo not shown) [12(b), 4-Nitro tricyclo [5,2,2,0^2,6] undec-8-ene-3,5-dione]	0	-3	29	32		
O=C1C2C3CCC(CC3)C2C(=O)C1[N+](=O)[O-] (stereo not shown) [13(b), 4-Nitro tricyclo [5,2,2,0^2,6] undecane-3,5-dione]	14	8	13	29		
CC1CCC[C@@H]2C(=O)C([N+](=O)[O-])C(=O)[C@H]12 (stereo partly drawn) [II(b), 4-Methyl-2-nitro-cis-hexahydroindane-1,3-dione]	-13	11	-8	17		
